Data taken from PubChem BioAssay (NCI).
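Growth conditions: 96-well plates. Treatment: test compound, 48 hours, 5 concentrations. Analysis: linear interpolation between bracketing concentrations; unreached endpoints set to highest concentration. GI50 marks 50% less growth. The concentration for full growth arrest is given as TGI.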

Key:
Assay in all cases: NCI anticancer screen, dose series, 48 h
786-0 renal = tested on: 786-0 renal
A498 renal = tested on: A498 renal
A549 NSCLC = tested on: A549 NSCLC
ACHN renal = tested on: ACHN renal
BT-549 breast = tested on: BT-549 breast
CAKI-1 renal = tested on: CAKI-1 renal
CCRF-CEM leukemia = tested on: CCRF-CEM leukemia
COLO 205 colon = tested on: COLO 205 colon
DU-145 prostate = tested on: DU-145 prostate
EKVX NSCLC = tested on: EKVX NSCLC
HCC-2998 colon = tested on: HCC-2998 colon
HCT-116 colon = tested on: HCT-116 colon
HCT-15 colon = tested on: HCT-15 colon
HL-60(TB) leukemia = tested on: HL-60(TB) leukemia
HOP-62 NSCLC = tested on: HOP-62 NSCLC
HOP-92 NSCLC = tested on: HOP-92 NSCLC
HS 578T breast = tested on: HS 578T breast
HT29 colon = tested on: HT29 colon
IGROV1 ovarian = tested on: IGROV1 ovarian
K-562 leukemia = tested on: K-562 leukemia
KM12 colon = tested on: KM12 colon
LOX IMVI melanoma = tested on: LOX IMVI melanoma
M14 melanoma = tested on: M14 melanoma
MALME-3M melanoma = tested on: MALME-3M melanoma
MCF7 breast = tested on: MCF7 breast
MDA-MB-231 breast = tested on: MDA-MB-231 breast
MDA-MB-435 = tested on: MDA-MB-435
MOLT-4 leukemia = tested on: MOLT-4 leukemia
NCI-H226 lung = tested on: NCI-H226 lung
NCI-H23 lung = tested on: NCI-H23 lung
NCI-H460 lung = tested on: NCI-H460 lung
NCI-H522 lung = tested on: NCI-H522 lung
NCI/ADR-RES ovarian = tested on: NCI/ADR-RES ovarian
OVCAR-3 ovarian = tested on: OVCAR-3 ovarian
OVCAR-4 ovarian = tested on: OVCAR-4 ovarian
OVCAR-5 ovarian = tested on: OVCAR-5 ovarian
OVCAR-8 ovarian = tested on: OVCAR-8 ovarian
PC-3 prostate = tested on: PC-3 prostate
RPMI-8226 leukemia = tested on: RPMI-8226 leukemia
RXF 393 renal = tested on: RXF 393 renal
SF-268 CNS = tested on: SF-268 CNS
SF-295 CNS = tested on: SF-295 CNS
SF-539 CNS = tested on: SF-539 CNS
SK-MEL-2 melanoma = tested on: SK-MEL-2 melanoma
SK-MEL-28 melanoma = tested on: SK-MEL-28 melanoma
SK-MEL-5 melanoma = tested on: SK-MEL-5 melanoma
SK-OV-3 ovarian = tested on: SK-OV-3 ovarian
SN12C renal = tested on: SN12C renal
SNB-19 CNS = tested on: SNB-19 CNS
SNB-75 CNS = tested on: SNB-75 CNS
SR leukemia = tested on: SR leukemia
SW-620 colon = tested on: SW-620 colon
T-47D breast = tested on: T-47D breast
TK-10 renal = tested on: TK-10 renal
U251 CNS = tested on: U251 CNS
UACC-257 melanoma = tested on: UACC-257 melanoma
UACC-62 melanoma = tested on: UACC-62 melanoma
UO-31 renal = tested on: UO-31 renal

COC(=O)CCC1=C(C)C(C)=N/C1=C\c1[nH]c(-c2ccc[nH]2)cc1OC
GI50 (786-0 renal): 0.456 µM
TGI (786-0 renal): 2.95 µM
GI50 (A498 renal): 3.35 µM
TGI (A498 renal): 15.8 µM
GI50 (A549 NSCLC): 0.368 µM
TGI (A549 NSCLC): 10.2 µM
GI50 (ACHN renal): 0.41 µM
TGI (ACHN renal): 2.76 µM
GI50 (BT-549 breast): 0.621 µM
TGI (BT-549 breast): 13.4 µM
GI50 (CAKI-1 renal): 0.338 µM
TGI (CAKI-1 renal): 6.36 µM
GI50 (CCRF-CEM leukemia): 0.403 µM
TGI (CCRF-CEM leukemia): 13.6 µM
GI50 (COLO 205 colon): 0.394 µM
TGI (COLO 205 colon): 1.48 µM
GI50 (DU-145 prostate): 0.88 µM
TGI (DU-145 prostate): 14.9 µM
GI50 (EKVX NSCLC): 0.712 µM
TGI (EKVX NSCLC): 14.3 µM
GI50 (HCC-2998 colon): 0.464 µM
TGI (HCC-2998 colon): 14.6 µM
GI50 (HCT-116 colon): 0.326 µM
TGI (HCT-116 colon): 1.26 µM
GI50 (HCT-15 colon): 0.262 µM
TGI (HCT-15 colon): 3.15 µM
GI50 (HL-60(TB) leukemia): 0.567 µM
TGI (HL-60(TB) leukemia): 3.34 µM
GI50 (HOP-62 NSCLC): 0.471 µM
TGI (HOP-62 NSCLC): 1.72 µM
GI50 (HOP-92 NSCLC): 0.211 µM
TGI (HOP-92 NSCLC): 0.649 µM
GI50 (HS 578T breast): 1.06 µM
TGI (HS 578T breast): 8.15 µM
GI50 (HT29 colon): 0.277 µM
TGI (HT29 colon): 3.85 µM
GI50 (IGROV1 ovarian): 1.06 µM
TGI (IGROV1 ovarian): 17.4 µM
GI50 (K-562 leukemia): 0.462 µM
TGI (K-562 leukemia): 24.2 µM
GI50 (KM12 colon): 0.393 µM
TGI (KM12 colon): 6.39 µM
GI50 (LOX IMVI melanoma): 0.221 µM
TGI (LOX IMVI melanoma): 0.609 µM
GI50 (M14 melanoma): 0.548 µM
TGI (M14 melanoma): 12.2 µM
GI50 (MALME-3M melanoma): 2.01 µM
TGI (MALME-3M melanoma): 7.09 µM
GI50 (MCF7 breast): 0.297 µM
TGI (MCF7 breast): 2.79 µM
GI50 (MDA-MB-231 breast): 0.228 µM
TGI (MDA-MB-231 breast): 2.09 µM
GI50 (MDA-MB-435): 0.472 µM
TGI (MDA-MB-435): 5.34 µM
GI50 (MOLT-4 leukemia): 0.567 µM
TGI (MOLT-4 leukemia): 16.4 µM
GI50 (NCI-H226 lung): 0.313 µM
TGI (NCI-H226 lung): 1.8 µM
GI50 (NCI-H23 lung): 0.805 µM
TGI (NCI-H23 lung): 11.4 µM
GI50 (NCI-H460 lung): 0.49 µM
TGI (NCI-H460 lung): 12.1 µM
GI50 (NCI-H522 lung): 0.515 µM
TGI (NCI-H522 lung): 1.91 µM
GI50 (NCI/ADR-RES ovarian): 0.476 µM
TGI (NCI/ADR-RES ovarian): 13.2 µM
GI50 (OVCAR-3 ovarian): 0.478 µM
TGI (OVCAR-3 ovarian): 2.41 µM
GI50 (OVCAR-4 ovarian): 0.371 µM
TGI (OVCAR-4 ovarian): 7.46 µM
GI50 (OVCAR-5 ovarian): 0.49 µM
TGI (OVCAR-5 ovarian): 12.2 µM
GI50 (OVCAR-8 ovarian): 0.334 µM
TGI (OVCAR-8 ovarian): 12.4 µM
GI50 (PC-3 prostate): 0.633 µM
TGI (PC-3 prostate): 14.4 µM
GI50 (RPMI-8226 leukemia): 0.356 µM
TGI (RPMI-8226 leukemia): 1.92 µM
GI50 (RXF 393 renal): 0.242 µM
TGI (RXF 393 renal): 1.06 µM
GI50 (SF-268 CNS): 0.935 µM
TGI (SF-268 CNS): 16.2 µM
GI50 (SF-295 CNS): 0.724 µM
TGI (SF-295 CNS): 4.28 µM
GI50 (SF-539 CNS): 0.639 µM
TGI (SF-539 CNS): 6.38 µM
GI50 (SK-MEL-2 melanoma): 0.363 µM
TGI (SK-MEL-2 melanoma): 1.21 µM
GI50 (SK-MEL-28 melanoma): 1.85 µM
TGI (SK-MEL-28 melanoma): 8.47 µM
GI50 (SK-MEL-5 melanoma): 0.145 µM
TGI (SK-MEL-5 melanoma): 0.315 µM
GI50 (SK-OV-3 ovarian): 2.82 µM
TGI (SK-OV-3 ovarian): 15.9 µM
GI50 (SN12C renal): 0.805 µM
TGI (SN12C renal): 14.3 µM
GI50 (SNB-19 CNS): 1.89 µM
TGI (SNB-19 CNS): 17 µM
GI50 (SNB-75 CNS): 0.434 µM
TGI (SNB-75 CNS): 3.62 µM
GI50 (SR leukemia): 0.352 µM
GI50 (SW-620 colon): 0.385 µM
TGI (SW-620 colon): 11.9 µM
GI50 (T-47D breast): 0.329 µM
TGI (T-47D breast): 3.42 µM
GI50 (TK-10 renal): 0.93 µM
TGI (TK-10 renal): 10.1 µM
GI50 (U251 CNS): 0.419 µM
TGI (U251 CNS): 2.87 µM
GI50 (UACC-257 melanoma): 1.44 µM
TGI (UACC-257 melanoma): 9.86 µM
GI50 (UACC-62 melanoma): 0.365 µM
TGI (UACC-62 melanoma): 1.26 µM
GI50 (UO-31 renal): 0.479 µM
TGI (UO-31 renal): 2.55 µM
